Results as given in patent US20200003760A1, “IN-VITRO METHODS FOR CLASSIFYING DRUGS ACCORDING TO THEIR POTENTIAL TO CAUSE LIVER CELL INJURY” (Board of Trustees of Michigan State University, priority 2018, published 2020).
Read-outs that look alike come from different tables or passages of the source.

Assays:
HepG2 cells [1] = test: Drug/cytokine-induced cytotoxicity (% LDH release) concentration-response in HepG2 cells; assay type: cell-based, human; set-up: key to Deltadiff: LDH release percentage points (drug/TNF Delta minus drug/VEH Delta); settings: for R10 / R10 IFN / R10 TNF / R10 TNF/IFN: 10 percent increase in LDH response above min, 0 when D10 = 0; for R10 / Emax: drug alone (VEH); for R10 IFN: with IFN; for R10 TNF: with TNF; for Deltadiff: Delta of drug/TNF curve minus Delta of drug/VEH curve (LDH percentage); for Emax: Homo sapiens, HepG2; for TNF change: D10TNF − D10VEH
In short: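 Cells at passage 6-16 were treated for 24 hours with drug or vehicle (water or DMSO <0.5%), alone or with TNF (10 ng/ml) and/or IFN (10 ng/ml), after overnight attachment. Cytotoxicity was scored as LDH released into medium; concentrations were expressed as [drug]/Cmax, with four-parameter logistic fits giving EC50, EC10 and R10 (+10 LDH points over baseline).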

[2] = Logistic regression classification model: probability that a drug is associated with IDILI; set-up: species or system human; settings: probability that drug is associated with IDILI; covariates Deltadiff, EC50 VEH, EC50 TNF, Delta VEH, Cmax; optimal cutoff 0.46
From the text: Classification modeling using defined covariates. In the second phase of analysis, classification models were developed using logistic regression with covariates as independent variables in the analysis and known IDILI classification as the dependent variable. A model selection process was used to determine if a covariate or set of covariates is associated with IDILI liability. Covariates were first evaluated individually to determine how well a particular covariate classified drugs according to IDILI liability, and then covariates were evaluated in combination. Combinations of covariates were selected to maximize the ability of the model to distinguish between drugs associated or not with IDILI. Specifically, covariates that describe changes in efficacy (Delta, Deltadiff, etc.) were paired with covariates that describe changes in potency (EC50, EC10, R10, etc.) to find covariate combinations that led to models that most accurately discriminated between drugs that are and are not associated with IDILI. […] The logistic regression models follow the equation: […]
where ŷi is the calculated (predicted) probability that drug i with a vector of covariates xi is associated with IDILI. The β coefficients (β0, the regression intercept; and βi, the regression slopes for model covariates, xi) were derived from the logistic regression models using 1) combinations of the covariates (xi) generated by concentration-response modeling for each of the 24 drugs evaluated in this study, and 2) the true IDILI classification for the dependent variable yi (i.e., 1 for IDILI+drugs and 0 for IDILI-drugs). […] This occurs when a covariate almost perfectly separates observations into the appropriate categories. […] When separation or quasi-complete separation occurs, use of the standard method (i.e., maximum likelihood estimation) provides biased, unreliable estimates of βi.
Receiver operating characteristic (ROC) analysis. In the third phase of the statistical approach, the classification models, generated as logistic regression models using single covariates or combinations of covariates, were evaluated by ROC analysis to determine which model and corresponding sets of covariates led to the most accurate classification of drugs according to their potential to cause IDILI. An ROC curve was created for each model by graphing the true positive rate (sensitivity; i.e., proportion of drugs correctly classified as associated with IDILI) against the false positive rate (1-specificity; i.e., proportion of drugs incorrectly classified as associated with IDILI) at various probability cutoff thresholds (k). […] An area under the curve (AUC) and confidence interval was computed for each ROC curve (where each logistic regression model has one ROC curve). […] Corresponding to each ROC curve is an optimal threshold value (k*), the threshold yielding the highest point of accuracy on the curve (i.e., the point nearest the point […] on the curve). Thus, each ROC curve has a corresponding AUC and an optimal cutoff (k*) that corresponds to the highest point of accuracy on that ROC curve.

[3] = maximal plasma concentration after pharmacologic dosing in human patients; cited from earlier work
[4] = cited from earlier work; for True classification: IDILI in human patients; for IDILI liability: criteria of Xu et al. (2008)
HepG2 cells [5] = test: Point of departure (POD) from censored concentration-response relationships in HepG2 cells; assay type: cell-based, human; settings: censored CRRs, 4-parameter log-logistic model
From the text: Partial, or censored, CRRs were then created using concentrations at or below the EC50. Nine CRC models were fit to the partial CRRs for all 24 drugs and compared to identify the best-fitting CRC model overall. Models were compared using Akaike Information Criteria (AIC; Akaike 1973, Burnham & Anderson 2002). The 4-parameter log-logistic model was selected to model censored CRRs for each of the 24 drugs since it provided the best fit (lowest AIC) for the majority of drugs. […] PODs provided a robust measure to characterize each of the CRCs using the low-concentration regions of the CRRs. In addition to POD.DRUG and POD.DRUG+TNF, POD.DIFF (i.e., POD.DRUG−POD.DRUG+TNF) and POD.RATIO (i.e., POD.DRUG/POD.DRUG+TNF) were used as covariates in the logistic regression model developed to classify the drugs according to their IDILI status. […] The horizontal blue line illustrates the mean control value estimated by pooling LDH % responses at the zero concentrations for both CRRs above. The horizontal dashed red line illustrates an upper limit of the pooled control data as the control mean plus 2 control standard deviations. PODs were then calculated for each curve as the effective concentration corresponding to the upper limit of the pooled control data, shown as vertical dashed red lines.

[6] = categorical, Delta threshold 10 LDH percentage points, read-out: D10
[7] = maximal LDH response, 24 h, read-out: max

SMILES	R10 (HepG2 cells [1])	R10 IFN (HepG2 cells [1])	R10 TNF (HepG2 cells [1])	R10 TNF/IFN (HepG2 cells [1]; with TNF and IFN)	Deltadiff (HepG2 cells [1])	Emax (HepG2 cells [1]; [6]) [%]	Emax (HepG2 cells [1]; [7]) [%]	TNF change (HepG2 cells [1]; categorical)	Estimated probability [2]	Cmax [3] [nM]	True classification [4]	IDILI liability [4]	cytotoxic interaction of drug with TNF (HepG2 cells [1]; HepG2, 24 h, TNF 10 ng/ml)	effect of IFN coexposure on the drug/TNF cytotoxic interaction (HepG2 cells [1]; HepG2, 24 h, TNF and IFN 10 ng/ml each)	cytotoxicity of drug on its own (LDH release) (HepG2 cells [1]; HepG2, 24 h, absence of cytokines)	EC10 TNF (HepG2 cells [1]; value corresponding to 10% of Delta, with TNF 10 ng/ml, NA = no significant increase)	EC10 TNF/IFN (HepG2 cells [1]; value corresponding to 10% of Delta, with TNF and IFN, NA = no significant increase)	POD.DRUG versus POD.DRUG+TNF (HepG2 cells [5])
CS(=O)(=O)c1ccc(C2=C(c3ccccc3)C(=O)OC2)cc1 [Rofecoxib]	0 [drug]/Cmax	0 [drug]/Cmax	0 [drug]/Cmax	0 [drug]/Cmax	0	< 10	12.2	0	0.1278	1000	IDILI−	IDILI−	–	–	–	–	–	–
CN[C@H]1CC[C@@H](c2ccc(Cl)c(Cl)c2)c2ccccc21 [Sertraline]	0 [drug]/Cmax	0 [drug]/Cmax	0 [drug]/Cmax	0 [drug]/Cmax	0	< 10	14	0	0.1275	60	IDILI−	IDILI−	–	–	–	–	–	–
N[C@@H]1[C@H]2CN(c3nc4c(cc3F)c(=O)c(C(=O)O)cn4-c3ccc(F)cc3F)C[C@@H]12 [Trovafloxacin]	0 [drug]/Cmax	0 [drug]/Cmax	4.8 [drug]/Cmax	1.2 [drug]/Cmax	27.4	< 10	18.7	1	–	5000	–	–	TNF significantly enhanced the cytotoxicity	coexposure to IFN enhanced the cytotoxic interaction	statistically significant increase in LDH release	2.3 [drug]/Cmax	0.5 [drug]/Cmax	POD.DRUG occurs at a relatively higher concentration than POD.DRUG+TNF
